Data from ChEMBL document CHEMBL5375988, “AcGlcAs: A Novel P53-Targeting Arsenical with Potent Cellular Uptake and Cancer Cell Selectivity” (J Med Chem, 2023).
Calls of active or inactive are those of the source. The calls are words filed in the database; no cut-off is given here.

Key:
NB-4 [1] = test: Induction of apoptosis in human NB4 cells assessed as early apoptotic cells at 9 uM preincubated for 1 hrs followed by replacement with fresh culture medium and measured after 24 hrs by Annexin V-FITC/7AAD staining based flow cytometry assay (reference value: 2.15%); format: functional
[2] = target: T1, PML-RARalpha (Homo sapiens) (UniProt P10276+P29590); test: Induction of PML/RARalpha degradation in human NB4 cells assessed as downregulation of MPO mRNA expression incubated for 1 hrs followed by replacement with fresh culture medium for 6 hrs by RT-qPCR analysis; format: cell-based; settings: dose 0.3-3 µM
T1 sequence (P10276 whole entry, looked up): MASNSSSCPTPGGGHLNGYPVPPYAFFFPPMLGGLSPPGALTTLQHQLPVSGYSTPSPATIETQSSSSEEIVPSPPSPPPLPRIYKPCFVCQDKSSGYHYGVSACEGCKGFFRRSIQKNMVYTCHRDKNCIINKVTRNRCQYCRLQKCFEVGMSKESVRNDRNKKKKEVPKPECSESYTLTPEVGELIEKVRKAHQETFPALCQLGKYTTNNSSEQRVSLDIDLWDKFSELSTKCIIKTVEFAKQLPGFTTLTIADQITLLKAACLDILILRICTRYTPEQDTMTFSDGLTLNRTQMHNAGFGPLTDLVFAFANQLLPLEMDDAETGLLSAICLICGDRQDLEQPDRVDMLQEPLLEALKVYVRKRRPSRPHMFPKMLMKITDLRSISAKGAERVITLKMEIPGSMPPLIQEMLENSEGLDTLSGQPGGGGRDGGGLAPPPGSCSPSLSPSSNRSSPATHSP
T1 sequence (P29590 whole entry, looked up): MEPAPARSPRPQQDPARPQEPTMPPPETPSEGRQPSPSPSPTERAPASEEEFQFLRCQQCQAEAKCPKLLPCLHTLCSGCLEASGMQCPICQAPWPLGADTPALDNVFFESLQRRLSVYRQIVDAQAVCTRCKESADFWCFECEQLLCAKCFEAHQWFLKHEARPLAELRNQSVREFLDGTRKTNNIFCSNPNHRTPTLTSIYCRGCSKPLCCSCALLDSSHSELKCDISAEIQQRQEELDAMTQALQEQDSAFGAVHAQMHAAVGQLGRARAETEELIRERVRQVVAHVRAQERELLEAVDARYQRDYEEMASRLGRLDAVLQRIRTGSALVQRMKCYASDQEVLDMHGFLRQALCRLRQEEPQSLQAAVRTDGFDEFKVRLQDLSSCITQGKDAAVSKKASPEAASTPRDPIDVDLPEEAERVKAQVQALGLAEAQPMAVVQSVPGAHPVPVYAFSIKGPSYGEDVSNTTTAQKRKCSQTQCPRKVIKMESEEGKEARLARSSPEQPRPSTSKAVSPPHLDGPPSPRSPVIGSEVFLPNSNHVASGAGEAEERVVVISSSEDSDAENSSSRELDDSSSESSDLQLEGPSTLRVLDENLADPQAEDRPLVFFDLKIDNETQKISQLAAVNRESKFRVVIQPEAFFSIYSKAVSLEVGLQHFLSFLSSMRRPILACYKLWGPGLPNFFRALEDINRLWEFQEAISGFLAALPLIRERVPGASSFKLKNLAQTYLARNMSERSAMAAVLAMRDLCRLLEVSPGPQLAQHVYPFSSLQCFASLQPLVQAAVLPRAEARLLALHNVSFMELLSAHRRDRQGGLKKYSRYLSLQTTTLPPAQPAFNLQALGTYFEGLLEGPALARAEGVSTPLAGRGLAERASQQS

[3] = target: T1, PML-RARalpha (Homo sapiens); test: Induction of PML/RARalpha degradation in human NB4 cells assessed as residual protein level at 0.1 uM incubated for 1 hrs followed by replacement with fresh culture medium and measured after 16 hrs by Western blot analysis (reference value: 1); format: cell-based
[4] = Drug accumulation in ICR mouse kidney at 10 mg/kg, iv measured upto 24 hrs by ICP-MS analysis; format: ADME, organism-based; settings: in vivo
[5] = target: T1, PML-RARalpha (Homo sapiens); test: Induction of PML/RARalpha (unknown origin) degradation overexpressed in HEK293T cells assessed as residual protein level at 2 to 6 uM incubated for 1 hrs followed by replacement with fresh culture medium and measured after 16 hrs by Western blot analysis; format: cell-based; settings: dose 2-6 µM
NB-4 [6] = test: Induction of apoptosis in human NB4 cells assessed as viable cells at 9 uM preincubated for 1 hrs followed by replacement with fresh culture medium and measured after 24 hrs by Annexin V-FITC/7AAD staining based flow cytometry assay (reference value: 94%); format: functional; settings: read-out: Activity
HL-60 [7] = test: Upregulation of MDM2 mRNA expression in human HL-60 cells overexpressing p53-V272M mutant at 2 uM pretreated for 1 hr followed by culturing in fresh medium for 8 hrs by RT-qPCR analysis; format: functional, cell-based
[8] = target: T1, PML-RARalpha (Homo sapiens); test: Induction of PML/RARalpha degradation in human NB4 cells assessed as residual protein level at 0.3 uM incubated for 1 hrs followed by replacement with fresh culture medium and measured after 16 hrs by Western blot analysis (reference value: 1); format: cell-based
NCI-H1299 [9] = test: Upregulation of PUMA protein expression in human NCI-H1299 cells overexpressing p53-V272M mutant pretreated for 1 hr followed by culturing in fresh medium for 16 hrs by Western blot analysis; format: functional, cell-based
U-937 [10] = test: Induction of senescence in human U-937 cells harboring p53-V272M mutant assessed as increase in SA-beta-gal positive cells at 0.5 to 8 uM pretreated for 1 hr followed by culturing in fresh medium for 8 hrs by […] microscopic analysis; format: functional, cell-based; settings: dose 0.5-8 µM
[11] = Chemical stability of compound in PBS at 10 uM incubated for 1 hr by LC-MS analysis; format: physicochemical; settings: buffer
U-937 [12] = test: Antitumor activity against GFP-tagged human U-937 cells harboring p53 V272M mutant xenografted in M-NSG mouse assessed as decrease in leukemia cell population in spleen at 25 mg/kg, ip administered for 9 days starting from 7 days post inoculation and measured on day 2,6 and 9 by FACS analysis; format: functional, organism-based; settings: time 9.0 day
[13] = target: T1, PML-RARalpha (Homo sapiens); test: Induction of PML/RARalpha degradation in human NB4 cells assessed as downregulation of DLK1 mRNA expression incubated for 1 hrs followed by replacement with fresh culture medium for 6 hrs by RT-qPCR analysis; format: cell-based; settings: dose 0.3-3 µM
NB-4 [14] = test: Inhibition of colony formation in human NB4 cells at 1 to 9 uM pretreated for 1 hr followed by washout and cultured in soft agar containing fresh medium for 18 days by crystal violet staining based assay; format: functional, cell-based; settings: dose 1-9 µM
HL-60 [15] = test: Upregulation of p21 protein expression in human HL-60 cells overexpressing p53-V272M mutant pretreated for 1 hr followed by culturing in fresh medium for 16 hrs by Western blot analysis; format: functional, cell-based
[16] = Toxicity in M-NSG mouse xenografted with luciferase transduced human U-937 cells harboring p53 V272M mutant assessed as reduction in body weight at 10 mg/kg, iv measured for 8 days post administration; format: organism-based; settings: in vivo, 192 h, time 8 day
[17] = test system: Cellular tumor antigen p53 (Homo sapiens), P04637 [V272M]; test: Rescue of p53-V272M mutant transcriptional activity on PUMA promoter in human NCI-H1299 cells at 0.3 to 10 uM pretreated for 10 mins to1 hr followed by replacement with fresh culture media and measured after 24 hrs by firefly/renilla based luciferase reporter assay; format: cell-based; settings: filed as activator, dose 0.3-10 µM, time 10-60 min
U-937 [18] = test: Upregulation of p21 protein expression in human U-937 cells overexpressing p53-V272M mutant at 0.1 to 0.5 uM pretreated for 1 hr followed by culturing in fresh medium for 16 hrs by Western blot analysis; format: functional, cell-based; settings: dose 0.1-0.5 µM
NCI-H1299 [19] = test: Upregulation of PUMA mRNA expression in human NCI-H1299 cells overexpressing p53-V272M mutant at 2 uM pretreated for 1 hr followed by culturing in fresh medium for 8 hrs by RT-qPCR analysis; format: functional, cell-based
[20] = Plasma stability in monkey assessed as half life at […] measured upto 120 mins by LC-MS analysis; format: ADME, cell-free, Macaca mulatta; settings: rhesus monkey
NB-4 [21] = test: Induction of apoptosis in human NB4 cells assessed as necrotic cells at 27 uM preincubated for 1 hrs followed by replacement with fresh culture medium and measured after 24 hrs by Annexin V-FITC/7AAD staining based flow cytometry assay (reference value: 0.18%); format: functional
[22] = target: T1, PML-RARalpha (Homo sapiens); test: Induction of PML/RARalpha degradation in human NB4 cells assessed as decrease in micropunctuates at 3 uM incubated for 1 hrs followed by replacement with fresh culture medium and measured after 0.5 to 24 hrs by immunofluorescence analysis; format: cell-based
[23] = Drug uptake in human U-937 cells assessed as fold increase in arsenic accumulation at 10 uM incubated for 10 mins by ICP-MS analysis; format: ADME, cell-based; settings: u-937, 10 min
[24] = Clearance in ICR mouse at 10 mg/kg, iv measured upto 24 hrs by ICP-MS analysis relative to hepatic blood flow; format: ADME, organism-based; settings: in vivo
[25] = Plasma stability in human assessed as half life at […] measured upto 120 mins by LC-MS analysis; format: ADME, cell-free
NB-4 [26] = test: Induction of apoptosis in human NB4 cells assessed as early apoptotic cells at 27 uM preincubated for 1 hrs followed by replacement with fresh culture medium and measured after 24 hrs by Annexin V-FITC/7AAD staining based flow cytometry assay (reference value: 2.15%); format: functional
[27] = target: T1, PML-RARalpha (Homo sapiens); test: Induction of PML/RARalpha degradation in HEK293T cells at 3 uM incubated for 1 hrs followed by replacement with fresh culture medium and measured after 16 hrs by immunofluorescence analysis; format: cell-based
U-937 [28] = test: Antitumor activity against GFP-tagged human U-937 cells harboring p53 V272M mutant xenografted in M-NSG mouse assessed as delay in spleen swelling at 25 mg/kg, ip administered for 9 days starting from 7 days post inoculation and measured on day 9 by FACS analysis; format: functional, organism-based; settings: time 9.0 day
U-937 [29] = test: Antitumor activity against human U-937 cells harboring p53 V272M mutant xenografted in M-NSG mouse assessed as median survival at 25 mg/kg, ip administered daily for 11 days (reference value: 11 day); format: functional
NCI-H1299 [30] = test: Inhibition of colony formation in human NCI-H1299 cells harboring p53-V272M mutant at 2 to 32 uM pretreated for 1 hr followed by culturing in fresh medium and measured on day 7 by crystal violet staining based assay; format: functional, cell-based; settings: dose 2-32 µM

SMILES: CC(=O)OC[C@H]1O[C@@H](S[As]2SCCS2)[C@H](OC(C)=O)[C@@H](OC(C)=O)[C@@H]1OC(C)=O
- Activity (NB-4 [1]): 7.43%
- Activity [2]: Dose-Dependent Effect
- Activity [3]: 0.55
- Drug uptake [4]: Active
- Activity [5]: Active
- viability at 9 µM (NB-4 [6]): 85.6%
- Activity (HL-60 [7]): Active
- Activity [8]: 0.42
- Activity (NCI-H1299 [9]): Active
- Activity (U-937 [10]): inactive
- Stability [11]: Stable
- Activity (U-937 [12]): Active
- Activity [13]: Dose-Dependent Effect
- inhibition (NB-4 [14]): Active
- Activity (HL-60 [15]): Active
- Activity [16]: Non-Toxic
- Activity [17]: Active
- Activity (U-937 [18]): Active
- Activity (NCI-H1299 [19]): Active
- half-life [20]: 11.3 min
- Activity (NB-4 [21]): 1.3%
- Activity [22]: Active
- fold change (FC) [23]: 19
- CLH [24]: 13.7%
- half-life [25]: 16.1 min
- Activity (NB-4 [26]): 15.6%
- Activity [27]: Active
- Activity (U-937 [28]): Active
- MST (U-937 [29]): 18 days
- inhibition (NCI-H1299 [30]): Active
